Legend:
[1] = test system: primary human fibroblasts derived from IPF patients (LL29 cells); test: Inhibition of fibrotic process: αSMA staining in TGF-β1-treated primary human fibroblasts from IPF patients (LL29 cells); format: cell-based; details: Fibroblast, 96 h, LL29 cells treated with TGF-β1 (20 ng/mL), 4 days, 11-point dose-response from 10 μM to 1.87 nM, read-out: Inhibition of fibrosis EC50
Procedure, shortened: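 LL29 IPF lung fibroblasts in F12 with 1% FBS, compound (11-point, 10 μM to 1.87 nM, 0.1% DMSO) plus TGF-β1 20 ng/mL for 4 days at 37° C. αSMA-positive % of SYTOX-negative cells by immunofluorescence imaging, normalized to TGF-β1 wells; EC50 from non-linear regression of triplicates.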

[2] = test system: Wnt activity (Wnt-responsive Sp5 promoter-luciferase reporter in SW480 cells); test: Wnt activity screening assay: Sp5-Luc reporter gene in SW480 colon carcinoma cells; format: cell-based; details: Homo sapiens
Procedure, shortened: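 IC50 values come from variable-slope four-parameter fits of luciferase signal normalized to DMSO wells. Stable Sp5-Luc reporter SW480 colon carcinoma cells were exposed to compounds in a 3-fold dilution series (source plates from 10 mM stock) for forty-two hours at 37 °C.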

IC50 [2] [nM] | Structure (SMILES) | EC50 [1] [nM]
> 10000 | O=C(CC1CCNCC1)Nc1cncc(-c2cc3c(-c4nc5c(-c6cccc(F)c6)cncc5[nH]4)n[nH]c3cn2)c1 [Compound 893, N-(5-(3-(7-(3-Fluorophenyl)-3H-imidazo[4,5-c]pyridin-2-yl)-1H-pyrazolo[3,4-c]pyridin-5-yl)pyridin-3-yl)-2-(piperidin-4-yl)acetamide] | ≥ 9990
164 | CCCCC(=O)Nc1cncc(-c2cc3c(-c4nc5c(-c6ccc(F)cc6)cncc5[nH]4)n[nH]c3cn2)c1 [Compound 44, N-(5-(3-(7-(4-Fluorophenyl)-3H-imidazo[4,5-c]pyridin-2-yl)-1H-pyrazolo[3,4-c]pyridin-5-yl)pyridin-3-yl)pentanamide] | 75
122 | CN(C)Cc1cncc(-c2cc3c(-c4nc5c(N6CCCCC6)cncc5[nH]4)n[nH]c3cn2)c1 [Compound 169, N,N-Dimethyl-1-(5-(3-(7-(piperidin-1-yl)-3H-imidazo[4,5-c]pyridin-2-yl)-1H-pyrazolo[3,4-c]pyridin-5-yl)pyridin-3-yl)methanamine] | 74
65 | Fc1cccc(-c2cncc3[nH]c(-c4n[nH]c5cnc(-c6ccncc6)cc45)nc23)c1 [Compound 900, 3-(7-(3-Fluorophenyl)-3H-imidazo[4,5-c]pyridin-2-yl)-5-(pyridin-4-yl)-1H-pyrazolo[3,4-c]pyridine] | ≤ 9
80.1 | CN(C)Cc1cncc(-c2cc3c(-c4nc5c(-c6cccc(F)c6)cncc5[nH]4)n[nH]c3cn2)c1 [Compound 13, 1-(5-(3-(7-(3-Fluorophenyl)-3H-imidazo[4,5-c]pyridin-2-yl)-1H-pyrazolo[3,4-c]pyridin-5-yl)pyridin-3-yl)-N,N-dimethylmethanamine] | ≤ 9
1060 | Fc1ccc(-c2cncc3[nH]c(-c4n[nH]c5cnc(-c6cncc(CN7CCCC7)c6)cc45)nc23)cc1 [Compound 40, 3-(7-(4-Fluorophenyl)-3H-imidazo[4,5-c]pyridin-2-yl)-5-(5-(pyrrolidin-1-ylmethyl)pyridin-3-yl)-1H-pyrazolo[3,4-c]pyridine] | 1770
319 | CN(C)c1cncc(-c2cc3c(-c4nc5c(-c6cccs6)cncc5[nH]4)n[nH]c3cn2)c1 [Compound 293, N,N-Dimethyl-5-(3-(7-(thiophen-2-yl)-3H-imidazo[4,5-c]pyridin-2-yl)-1H-pyrazolo[3,4-c]pyridin-5-yl)pyridin-3-amine] | ≤ 9
> 10000 | CCNCc1cncc(-c2cc3c(-c4nc5c(-c6ccoc6)cncc5[nH]4)n[nH]c3cn2)c1 [Compound 266, N-((5-(3-(7-(Furan-3-yl)-3H-imidazo[4,5-c]pyridin-2-yl)-1H-pyrazolo[3,4-c]pyridin-5-yl)pyridin-3-yl)methyl)ethanamine] | ≥ 9990
33.5 | Cc1ccc(-c2cncc3[nH]c(-c4n[nH]c5cnc(-c6cncc(NC(=O)C7CCCC7)c6)cc45)nc23)s1 [Compound 359, N-(5-(3-(7-(5-Methylthiophen-2-yl)-3H-imidazo[4,5-c]pyridin-2-yl)-1H-pyrazolo[3,4-c]pyridin-5-yl)pyridin-3-yl)cyclopentanecarboxamide] | 689
227 | CCCCC(=O)Nc1cncc(-c2cc3c(-c4nc5c(-c6cc(F)cc(NCCN(C)C)c6)cncc5[nH]4)n[nH]c3cn2)c1 [Compound 434, N-(5-(3-(7-(3-((2-(Dimethylamino)ethyl)amino)-5-fluorophenyl)-3H-imidazo[4,5-c]pyridin-2-yl)-1H-pyrazolo[3,4-c]pyridin-5-yl)pyridin-3-yl)pentanamide] | 8260
7.5 | Cc1ccc(-c2cncc3[nH]c(-c4n[nH]c5cnc(-c6cncc(NC(=O)C(C)C)c6)cc45)nc23)s1 [Compound 347, N-(5-(3-(7-(5-Methylthiophen-2-yl)-3H-imidazo[4,5-c]pyridin-2-yl)-1H-pyrazolo[3,4-c]pyridin-5-yl)pyridin-3-yl)isobutyramide] | ≤ 9
17.6 | CCCCC(=O)Nc1cncc(-c2cc3c(-c4nc5c(-c6ccc(C)s6)cncc5[nH]4)n[nH]c3cn2)c1 [Compound 356, N-(5-(3-(7-(5-Methylthiophen-2-yl)-3H-imidazo[4,5-c]pyridin-2-yl)-1H-pyrazolo[3,4-c]pyridin-5-yl)pyridin-3-yl)pentanamide] | 110
47 | CC(C)(C)C(=O)Nc1cncc(-c2cc3c(-c4nc5c(-c6ccccc6F)cncc5[nH]4)n[nH]c3cn2)c1 [Compound 60, N-(5-(3-(7-(2-Fluorophenyl)-3H-imidazo[4,5-c]pyridin-2-yl)-1H-pyrazolo[3,4-c]pyridin-5-yl)pyridin-3-yl)pivalamide] | ≥ 9990
59 | Oc1cncc(-c2cc3c(-c4nc5c(-c6cccc(F)c6)cncc5[nH]4)n[nH]c3cn2)c1 [Compound 897, 5-(3-(7-(3-Fluorophenyl)-3H-imidazo[4,5-c]pyridin-2-yl)-1H-pyrazolo[3,4-c]pyridin-5-yl)pyridin-3-ol] | 32
> 10000 | CCCCC(=O)Nc1cncc(-c2cc3c(-c4nc5c(-c6ccccn6)cncc5[nH]4)n[nH]c3cn2)c1 [Compound 148, N-(5-(3-(7-(Pyridin-2-yl)-3H-imidazo[4,5-c]pyridin-2-yl)-1H-pyrazolo[3,4-c]pyridin-5-yl)pyridin-3-yl)pentanamide] | ≥ 9990
552 | Cc1ncc(-c2cc3c(-c4nc5c(-c6cccc(F)c6)cncc5[nH]4)n[nH]c3cn2)n1C [Compound 889, 5-(1,2-Dimethyl-1H-imidazol-5-yl)-3-(7-(3-fluorophenyl)-3H-imidazo[4,5-c]pyridin-2-yl)-1H-pyrazolo[3,4-c]pyridine] | 46
440 | CN1CCN(c2cncc3[nH]c(-c4n[nH]c5cnc(-c6cncc(NC(=O)C7CCCC7)c6)cc45)nc23)CC1 [Compound 229, N-(5-(3-(7-(4-Methylpiperazin-1-yl)-3H-imidazo[4,5-c]pyridin-2-yl)-1H-pyrazolo[3,4-c]pyridin-5-yl)pyridin-3-yl)cyclopentanecarboxamide] | ≥ 9990
1380 | CN1CCN(c2cncc3[nH]c(-c4n[nH]c5cnc(-c6cncc(CN7CCCCC7)c6)cc45)nc23)CC1 [Compound 223, 3-(7-(4-Methylpiperazin-1-yl)-3H-imidazo[4,5-c]pyridin-2-yl)-5-(5-(piperidin-1-ylmethyl)pyridin-3-yl)-1H-pyrazolo[3,4-c]pyridine] | ≥ 9990
175 | CC(C)Nc1cncc(-c2cc3c(-c4nc5c(-c6cc(F)cc(NCCN(C)C)c6)cncc5[nH]4)n[nH]c3cn2)c1 [Compound 428, N^1-(3-Fluoro-5-(2-(5-(5-(isopropylamino)pyridin-3-yl)-1H-pyrazolo[3,4-c]pyridin-3-yl)-3H-imidazo[4,5-c]pyridin-7-yl)phenyl)-N2,N2-dimethylethane-1,2-diamine] | ≥ 9990
144 | O=C(Nc1cncc(-c2cc3c(-c4nc5c(-c6ccccc6F)cncc5[nH]4)n[nH]c3cn2)c1)C1CCC1 [Compound 72, N-(5-(3-(7-(2-Fluorophenyl)-3H-imidazo[4,5-c]pyridin-2-yl)-1H-pyrazolo[3,4-c]pyridin-5-yl)pyridin-3-yl)cyclobutanecarboxamide] | ≤ 9
588 | CN(C)Cc1cncc(-c2cc3c(-c4nc5c(-c6cccs6)cncc5[nH]4)n[nH]c3cn2)c1 [Compound 299, N,N-Dimethyl-1-(5-(3-(7-(thiophen-2-yl)-3H-imidazo[4,5-c]pyridin-2-yl)-1H-pyrazolo[3,4-c]pyridin-5-yl)pyridin-3-yl)methanamine] | ≤ 9
31.1 | Fc1cccc(-c2cncc3[nH]c(-c4n[nH]c5cnc(-c6cncc(CN7CCC(F)(F)C7)c6)cc45)nc23)c1 [Compound 25, 5-(5-((3,3-Difluoropyrrolidin-1-yl)methyl)pyridin-3-yl)-3-(7-(3-fluorophenyl)-3H-imidazo[4,5-c]pyridin-2-yl)-1H-pyrazolo[3,4-c]pyridine] | ≤ 9

Structure (SMILES) | IC50 [2] [nM] | EC50 [1] [nM]
Fc1cccc(-c2cncc3[nH]c(-c4n[nH]c5cnc(C6=CCNCC6)cc45)nc23)c1 [Compound 886, 3-(7-(3-Fluorophenyl)-3H-imidazo[4,5-c]pyridin-2-yl)-5-(1,2,3,6-tetrahydropyridin-4-yl)-1H-pyrazolo[3,4-c]pyridine] | 1940 | 72
